Data reported in patent US20030157715A1, “Modulation of chromosome function by chromatin remodeling agents” (priority 2000, published 2003).

Columns and labels:
[1] = system: GAGAA repeats (satellite V / bw^D repeats); experiment: DNase I footprinting on GAGAA repeats (GAF31 and Brown I probes); format: binding, Drosophila melanogaster
Excerpt: FIG. 3 Binding specificity of P31 and GAGA factor Panel A: DNAse I footprinting experiment with P31 and affinity cleavage with P31E are shown on GAF31 and the Brown I probes. The GAF31 and Brown I probes contains a (AAGAG)2 motif and GAGA factor (GAF) binding site from the Ubx promoter (Biggin et al., 1988). […] The Brown I oligo (a tandem repeat) includes an (AAGAG)s binding site and a degenerate P31 binding site (AACAC)2 as indicated. P31 concentrations used (nM) are indicated. Lanes labeled P31E (top) are affinity cleavage reactions with 1 nM of P31E on either probe. Binding orientations of P31E on these probes are indicated by arrowheads on the brackets pointing towards the N-terminus of the molecule. The letter G refers the G nucleotide cleavage reaction. Panel B: DNAse I footprinting experiment with purified GAGA factor (GAF) on the GAF31 probe. Note that GAF binds both the (AAGAG)2 motif and the binding site from the Ubx promoter.
A polyamide that targets the abundant satellite V composed of GAGAA repeats (Lohe et al., 1993) was synthesized. Designing molecules that would bind to this repeat motif represented a challenge since with current knowledge, targeting of sequences containing 5′-GNG-3′ or 5′-GA-3′ with drugs composed of pyrrole and imidazole is difficult. However, successful targeting to sequences containing 5′-GTG-3′ was previously achieved using an Im-β-Im motif where β-alanine replaces the function of pyrrole (Turner et al., 1998). Since β-alanine, like pyrroles, is degenerate for […] and T^•A base pairs, we designed a compound based on these observations, to recognize a sequence composed of two tandem GAGAA repeats by systematic placement of -alanine at the N-terminal neighbor of imidazole. The binding affinity and specificity of this compound, termed P31 (=Im-β-Im-Py-β-Im-β-Im-β-Dp), were evaluated by DNAse I footprinting. For this purpose, two different probes were examined, both containing GAGAA repeats. […] The apparent binding constant of P31 for this sequence was estimated at 0.25 nM. […]

[2] = system: bw^D/bw^D; Ubx^1/+ flies; experiment: P31 fed to developing Ubx^1/+; bw^D flies; format: in vivo, Drosophila melanogaster
Excerpt: P31 enhances haltere-to-wing transformation in heterozygous bw^D/bw; Ubx^1/+ flies: The GAGA factor is know to bind to the promoter of Ubx and to stimulate its transcription in vitro (Biggin and Tjian, 1988) The Trl locus also genetically interacts with Ubx, since Trl^13C dominantly enhances the segmental transformation observed in Ubx heterozygotes. […] We asked, does P31 also chemically mimic the genetic interaction of Ubx and Trl^13C? To address this issue, we fed P31 to two genotypes, +/+; Ubx/+ and bw^D/bw^D; Ubx^1/+. The latter genotype was obtained by crossing bw^D/bw^D; st/st females and bw^D/bw^D Ubx^1/Tm3, sb males.
The progeny of these two genotypes raised in the presence of P31 were scored both for the A6 to A5 and the haltere-to-wing transformations as well as for the sex comb reduced phenotypes (Table 3). […] However, eight of them (out of approximately 100) reached a late pupae stage and thus could be dissected to inspect their morphology. […] This transformation was manifested by an enlarged size and gray color of the halteres, and also by the appearance of numerous bristles at the base of the halteres that are characteristic of the anterior wing margin. […] We conclude that the chemical mimicry by P31 in a bw^D genetic backgrounds extends to the genetic interaction of Trl^13C with Ubx.
The lethality of the progenies was calculated by counting the dead bodies and the total empty pupal shells. The A6 to A5 transformation was detected by bristles that form on abdominal segment A6 on males. All male adult flies obtained (˜50) were scored. Sex combs and halteres were individually inspected and photographed under the microscope (Axiophot, Zeiss) after dissecting at least 30 individuals and incubating them into 30 μl of 0.6 g/ml gum arabic; 4 g/ml chlorohydrate; 35% glycerol under a 24×24 mm coverslip as described (Ashburner, 1989). Since raising double heterozygous flies (Ubx^1/+; bw^D/+) led to lethality, we morphologically dissected eight late stage pupae after carefully removing the pupal envelope.

With `CN(C)CCCNC(=O)CCNC(=O)c1nc(NC(=O)CCNC(=O)c2nc(NC(=O)CCNC(=O)c3cc(NC(=O)c4nc(NC(=O)CCNC(=O)c5nccn5C)cn4C)cn3C)cn2C)cn1C` [Compound P31, Im-β-Im-Py-β-Im-β-Im-β-Dp] the “concentration at which bw^D repeats are protected” value ([1]; 2 consecutive bw^D repeats (GAGAAGAGAA)) was 0.1 nM, the Kd ([1]; DNase I footprinting, read-out: apparent binding constant for two GAGAA repeats) was 0.25 nM and the “affinity for target binding site (in words)” value ([1]; two GAGAA repeats) was “subnanomolar affinity”. For the same molecule, the “pupae with clear signs of haltere-to-wing transformation” value ([2]; bw^D/bw^D, Ubx^1/+, dissected late pupae) was “five of eight”, the “A6 to A5” value ([2]; fly stock Ubx^1/+, bw^D) was 100% and the Lethality ([2]; fly stock Ubx^1/+, bw^D) was 100%. The “Sex comb (mean)” value ([2]; fly stock Ubx^1/+, bw^D) was 7.4, the “Sex comb, range of teeth” value ([2]; fly stock Ubx^1/+, bw^D) was 5-9 and the “A6 to A5, number of bristles on A6” value ([2]; fly stock Ubx^1/+, bw^D, dissected late pupae) was 2-6. The “effect on development (in words)” value ([2]; in vivo) was “blocked their development completely”.
